Where two headings read alike, the source gives them in different places. Blank lines part the entries; values can stand above or below the compound they belong to. Non-standard residues stand in square brackets, D forms with d. Residues, ends and D or L forms follow the SMILES beside them. Cit = NC(=O)NCCC[C@H](N)C(=O)O
Tests used:
[1] = test system: recombinant human pancreatic glucokinase; assay: Catalytic activity of recombinant human pancreatic glucokinase (G6PDH coupled assay); type: biochemical; parameters: catalytic activity: unit not given beside the values; conditions: for catalytic activity: source data sheet Fig 5c; for Vmax / Km: steady-state kinetics at 37 °C, Michaelis-Menten fit; for Vmax: glucose 0–50 mM; for Km: substrate glucose 0–50 mM
Procedure: For in vitro citrullination, 0.1U of rabbit peptidylarginine deiminase (PADI2; Sigma–Aldrich) were added to 50 µg of recombinant human pancreatic glucokinase (rhGK; LS-G3456, LSBio) in reaction buffer (0.1 M Tris-HCl, 10 mM CaCl2 and 5 mM DTT) at 37 °C for 2.5 hrs and kept at -80 °C in multiple aliquots to avoid freeze and thaw until used. Minimum 6 µg of rhGK and PAD-treated-rhGK were reduced, alkylated and tryptic digested for LS-MS/MS analysis. Data were collected on a QE-Plus mass spectrometer coupled to a NanoACQUITY UPLC (Waters Inc.). A Waters Symmetry® C18 180 μm × 20 mm trap column and a 1.7-μm, 75 μm × 250 mm nanoACQUITY UPLC column (35 °C) was utilized for the separation. Collected LC–MS/MS data were processed using Proteome Discoverer Software (v. 2.2, Thermo Fisher Scientific) and searched were carried out in MASCOT Search Engine (Matrix Science) using the below parameters; oxidation (M), deamidated (N/Q) and citrullination (R) as the variable modifications and carbamidomethylation (C) as a fixed modification. Mascot results were loaded into Scaffold Q + S 4.11.0 and then Scaffold PTM 3.3.0 was used to re-analyze MS/MS spectra identified as citrulline modified peptides. Calculated Ascore values for citrullinated peptides containing the neutral loss of isocyanic acid (−43 Da)[54] indicate the level of site localization probabilities to assess the level of confidence in each citrullination PTM localization. Scaffold PTM then combines localization probabilities for all peptides containing each identified PTM site to obtain the best estimated probability that a PTM is present at that particular site. Manual MS/MS inspection of the modified peptides were also carried out to ensure correct assignments/localizations of the citrullination sites (detailed MS/MS spectra are presented in Source Data-File 2 spreadsheet).
After in vitro citrullination by PAD as described above, recombinant human pancreatic glucokinase (rhGK; LS-G5486, LSBio) was put on the ice to stop the reaction for 5 min. Then glucokinase activity was measured spectrophotometrically (A340nm) at 37 °C by a glucose 6-phosphate dehydrogenase (G6PDH) coupled assay as described previously. In brief, 1 µg rhGK or PAD-treated rhGK was assayed in a reaction buffer containing 25 mM Hepes (pH7.3), 2 mM MgCl2, 1 mM DTT, 0.5 mM NADP, 2 mM ATP, 0.01%BSA, 20U/ml G6PDH and 25 mM D-( + )-glucose. Relative specific activity of glucokinase was calculated from linear regression of the change in A340nm. To determine the steady-state kinetic properties of both rhGK and PAD-treated rhGK, varying concentrations of D-( + )-glucose (0–50 mM) were used. Vmax and Km were calculated by Michaelis-Menten equation using GraphPad Prism Software.

[2] = target: T1, DR0401 protein (Homo sapiens, UniProt P01903+P01911, A100K/A169T/F76Y/I96L/K127E/L162R/M171V/N62H/P40V/Q125Y/R42H/S133A/S149N/S66Y/V115G/V209L/W38E); assay: DR0401 peptide binding competition assay
T1 construct: made in house; host or cells: insect cell cultures

[3] = 25 mM glucose, 1 µg protein, replicate 1
[4] = 25 mM glucose, 1 µg protein, replicate 2
[5] = Supplementary Table 2, competition with biotin-HA306-318 0.02 μM, read-out: IC50 (Binding of Predicted Glucokinase Peptides to DR04:01)
[6] = Supplementary Table 3, competition with biotin-HA306-318 0.02 μM, representative values from two replicate experiments, read-out: IC50 (Effect of Citrulline or Arg Substitution)

Compound: rhGK: Recombinant human pancreatic glucokinase
catalytic activity [1, 3]: 72.34 | catalytic activity [1, 4]: 76.63 | Vmax [1]: 115.1 ± 10.5 µmol/mg/min | Km [1]: 8.48 ± 2.1 mM

Compound: PAD-treated rhGK: rhGK citrullinated in vitro by rabbit peptidylarginine deiminase (PADI2)
reduction of catalytic activity by citrullination ([1]; 25 mM glucose, 1 µg protein, versus native rhGK): 20% | catalytic activity [1, 3]: 56.53 | catalytic activity [1, 4]: 60.82 | Vmax [1]: 119.9 ± 7.7 µmol/mg/min | Km [1]: 16.2 ± 2.3 mM

IC50 [2, 5]: > 50 µM
Compound: CC(C)C[C@H](NC(=O)[C@H](CCC(N)=O)NC(=O)[C@H](CCC(=O)O)NC(=O)[C@H](CO)NC(=O)[C@H](C)NC(=O)[C@H](CCC(=O)O)NC(=O)CNC(=O)[C@H](Cc1c[nH]cn1)NC(=O)[C@H](Cc1ccccc1)NC(=O)[C@H](CC(C)C)NC(=O)[C@H](CC(C)C)NC(=O)[C@@H](N)CC(N)=O)C(=O)N[C@@H](CCCNC(N)=O)C(=O)N[C@H](C(=O)N[C@@H](CCCNC(=N)N)C(=O)O)[C@@H](C)O [GK 313-327] (H-NLLFHGEASEQL[Cit]TR-OH; N-terminus and C-terminus assumed)

IC50 [2, 6]: 8.6 µM
Compound: CC(C)C[C@H](NC(=O)[C@H](CCCNC(N)=O)NC(=O)[C@H](CC(=O)O)NC(=O)[C@H](Cc1ccc(O)cc1)NC(=O)[C@H](CCC(=O)O)NC(=O)[C@H](CC(C)C)NC(=O)[C@@H](N)CC(C)C)C(=O)N[C@H](C(=O)N[C@@H](CC(=O)O)C(=O)N[C@@H](CCC(=O)O)C(=O)N[C@@H](CO)C(=O)N[C@@H](CO)C(=O)N[C@@H](C)C(=O)N[C@@H](CC(N)=O)C(=O)N1CCC[C@H]1C(=O)O)C(C)C [GK 270 Cit] (H-LLEYD[Cit]LVDESSANP-OH)

IC50 [2, 5]: 40.1 µM
Compound: CC[C@H](C)[C@H](NC(=O)[C@H](CS)NC(=O)[C@H](CCC(=O)O)NC(=O)[C@H](CO)NC(=O)[C@@H](NC(=O)[C@H](Cc1ccc(O)cc1)NC(=O)[C@H](CC(=O)O)NC(=O)[C@H](Cc1ccccc1)NC(=O)[C@H](CC(C)C)NC(=O)[C@H](CCSC)NC(=O)[C@@H](N)CCC(=O)O)[C@@H](C)CC)C(=O)N[C@@H](CO)C(=O)N[C@@H](CC(=O)O)C(=O)N[C@@H](Cc1ccccc1)C(=O)N[C@@H](CC(C)C)C(=O)O [GK 120-134] (H-EMLFDYISECISDFL-OH)

IC50 [2, 5]: > 50 µM
Compound: CSCC[C@H](NC(=O)[C@H](CCCCN)NC(=O)[C@@H](NC(=O)[C@H](CO)NC(=O)[C@H](C)NC(=O)[C@H](CCC(=O)O)NC(=O)[C@H](CCC(=O)O)NC(=O)[C@H](Cc1c[nH]cn1)NC(=O)[C@@H](NC(=O)[C@H](CCC(=O)O)NC(=O)[C@H](CC(C)C)NC(=O)[C@H](CCCNC(N)=O)NC(=O)[C@H](CC(C)C)NC(=O)CN)[C@@H](C)O)C(C)C)C(=O)N[C@@H](CC(C)C)C(=O)O [GK 44-58] (H-GL[Cit]LETHEEASVKML-OH; N-terminus and C-terminus assumed)

IC50 [2, 5]: 0.03 µM
Compound: CSCC[C@H](NC(=O)[C@H](Cc1ccc(O)cc1)NC(=O)[C@H](CS)NC(=O)[C@H](C)NC(=O)[C@@H](N)CC(N)=O)C(=O)N[C@@H](CCC(=O)O)C(=O)N[C@@H](CCC(=O)O)C(=O)N[C@@H](CCSC)C(=O)N[C@@H](CCC(N)=O)C(=O)N[C@@H](CC(N)=O)C(=O)N[C@H](C(=O)N[C@@H](CCC(=O)O)C(=O)N[C@@H](CC(C)C)C(=O)N[C@H](C(=O)N[C@@H](CCC(=O)O)C(=O)O)C(C)C)C(C)C [GK 231-245] (H-NACYMEEMQNVELVE-OH)

IC50 [2, 6]: 9.5 µM
Compound: CC(C)C[C@H](NC(=O)[C@H](CC(C)C)NC(=O)[C@H](Cc1ccccc1)NC(=O)[C@H](CCC(=O)O)NC(=O)[C@H](CC(=O)O)NC(=O)[C@@H](N)CC(C)C)C(=O)N[C@@H](CCC(=O)O)C(=O)N[C@@H](Cc1ccc(O)cc1)C(=O)N[C@@H](CC(=O)O)C(=O)N[C@@H](CCCNC(N)=O)C(=O)N[C@@H](CC(C)C)C(=O)N[C@H](C(=O)N[C@@H](CC(=O)O)C(=O)N[C@@H](CCC(=O)O)C(=O)N[C@@H](CO)C(=O)O)C(C)C [GK 266 Cit] (H-LDEFLLEYD[Cit]LVDES-OH)

IC50 ([2]; Table 1, competition with biotinylated HA306-318 reference peptide at 0.02 μM in DR0401-coated wells, europium-streptavidin time resolved fluorescence, concentration that displaces half of the reference peptide, read-out: IC50 (binding to DR0401)): 2.5 µM
Compound: CC[C@H](C)[C@H](NC(=O)[C@H](CCSC)NC(=O)[C@@H](NC(=O)[C@H](C)NC(=O)[C@@H](NC(=O)[C@@H](NC(=O)[C@H](CC(=O)O)NC(=O)[C@H](CC(N)=O)NC(=O)[C@@H](NC(=O)[C@H](CCSC)NC(=O)[C@H](C)NC(=O)[C@@H](NC(=O)[C@@H](N)C(C)C)C(C)C)C(C)C)[C@@H](C)O)C(C)C)[C@@H](C)O)C(=O)N[C@@H](CO)C(=O)N[C@@H](CS)C(=O)N[C@@H](Cc1ccc(O)cc1)C(=O)O [GK 199] (H-VVAMVNDTVATMISCY-OH)

IC50 [2, 5]: > 50 µM
Compound: CC[C@H](C)[C@H](NC(=O)[C@H](Cc1ccccc1)NC(=O)[C@@H](NC(=O)[C@@H](NC(=O)[C@@H](N)CCC(=O)O)[C@@H](C)CC)[C@@H](C)O)C(=O)N[C@@H](CCC(=O)O)C(=O)N[C@@H](CO)C(=O)N[C@@H](CCC(=O)O)C(=O)N[C@@H](CCC(=O)O)C(=O)NCC(=O)N[C@@H](CO)C(=O)NCC(=O)N[C@@H](CCCNC(N)=O)C(=O)NCC(=O)N[C@@H](C)C(=O)O [GK 435-449] (H-EITFIESEEGSG[Cit]GA-OH; N-terminus and C-terminus assumed)

IC50 [2, 5]: > 50 µM
Compound: CC[C@H](C)[C@H](NC(=O)[C@@H](N)CC(=O)O)C(=O)N[C@H](C(=O)N[C@@H](CCCNC(N)=O)C(=O)N[C@@H](CCCNC(=N)N)C(=O)N[C@@H](C)C(=O)N[C@@H](CS)C(=O)N[C@@H](CCC(=O)O)C(=O)N[C@@H](CO)C(=O)N[C@H](C(=O)N[C@@H](CO)C(=O)N[C@H](C(=O)N[C@@H](CCCNC(N)=O)C(=O)N[C@@H](C)C(=O)O)[C@@H](C)O)C(C)C)C(C)C [GK 365-378] (H-DIV[Cit]RACESVST[Cit]A-OH; N-terminus and C-terminus assumed)

IC50 [2, 5]: 15.3 µM
Compound: CSCC[C@H](NC(=O)[C@@H](NC(=O)[C@H](CCCNC(=N)N)NC(=O)[C@H](Cc1ccccc1)NC(=O)[C@H](CC(N)=O)NC(=O)[C@@H](NC(=O)CN)[C@@H](C)O)C(C)C)C(=O)N[C@@H](CC(C)C)C(=O)N[C@H](C(=O)N[C@@H](CCCCN)C(=O)N[C@H](C(=O)NCC(=O)N[C@@H](CCC(=O)O)C(=O)NCC(=O)N[C@@H](CCC(=O)O)C(=O)O)C(C)C)C(C)C [GK 81-95] (H-GTNFRVMLVKVGEGE-OH)
